The results in this text go back to paper PMC7178340 (ACS Omega, 2020).

The test system of this experiment is VEGFR. In words: Cell-based competitive binding assay on U87MG cells. Also noted: species or system human. As to conditions: read-out: IC50, competitive binding, competition against [^64Cu]VEGF125–136 (74 kBq/1 mL), competitor 0-10 000 nmol/L, 37 °C, 1 h, γ counter, triplicate.

In the case of QKRKRKKSRYKS [VEGF125–136], the IC50 was found to be 277 ± 6.19 nM.
